Converted amounts (≈) assume the structure as drawn.
Legend:
VERO cells (ATCC CRL-81) = test: Vero cell toxicity; type: cell-based; conditions: Chlorocebus sabaeus, Vero; 72 hours exposure
Protocol: Cytotoxicity for a mammalian cell line was determined by exposing VERO cells (ATCC CRL-81) to serial dilutions of test compounds for 72 hours, followed by addition of resazurin and measurement of fluorescence after 4 hours incubation (Choules, et al., Antimnicrob. Agents Chemother. 2019, 63, e02204-02218).

MTB H37Rv ATCC 27294 = test: MIC, microplate Alamar Blue assay (MABA); type: cell-based, Mycobacterium tuberculosis; conditions: for MIC90: Mycobacterium tuberculosis, MTB H37Rv ATCC 27294, microplate Alamar Blue assay, lowest concentration giving ≥90% reduction in fluorescence
DPX2 cells = conditions: for DPX2 Viability @ 6.25 μM: 24 h; for DPX2 Viability @ 25 μM: human

| Structure (SMILES) | IC50 (VERO cells (ATCC CRL-81)) | MIC90 MABA Rel to RMP (MTB H37Rv ATCC 27294) | MIC90 (MTB H37Rv ATCC 27294) | DPX2 Viability @ 6.25 μM (DPX2 cells) | DPX2 Viability @ 25 μM (DPX2 cells) |
| --- | --- | --- | --- | --- | --- |
| CO[C@H]1/C=C/O[C@@]2(C)Oc3c(C)c(O)c4c(=O)c(c5oc6cc(N7CCN(C(=O)c8ccc9occc9c8)CC7)cc(OCc7ccc(CN8CCOCC8)cc7)c6nc-5c4c3C2=O)NC(=O)/C(C)=C\C=C\[C@H](C)[C@H](O)[C@@H](C)[C@@H](O)[C@@H](C)[C@H](OC(C)=O)[C@@H]1C [Compound 17s, (7S,9E,11S,12R,13S,14R,15R,16R,17S,18S,19E,21Z)-30-{4-[(1-benzofuran-5-yl)carbonyl]piperazin-1-yl}-2,15,17-trihydroxy-11-methoxy-3,7,12,14,16,18,22-heptamethyl-32-{[4-(morpholin-4-ylmethyl)phenyl]methoxy}-6,23,37-trioxo-8,27,38-trioxa-24,34-diazahexacyclo[23.11.1.1^4,7.0^5,36.0^26,35.0^28,33]octatriaconta-1,3,5(36)9,19,21,25,28,30,32,34-undecaen-13-yl acetate] | > 10 µM | 0.36 | 0.018 µM | 102% | 86% |
| CO[C@H]1/C=C/O[C@@]2(C)Oc3c(C)c(O)c4c(=O)c(c5oc6cc(N7CCCC(C(=O)Nc8ccc(Cl)cc8)C7)cc(C)c6nc-5c4c3C2=O)NC(=O)/C(C)=C\C=C\[C@H](C)[C@H](O)[C@@H](C)[C@@H](O)[C@@H](C)[C@H](OC(C)=O)[C@@H]1C (stereo partly drawn) [Compound 28, (7S,9E,11S,12R,13S,14R,15R,16R,17S,1S,19E,21Z)-30-{3-[(4-Chlorophenyl)carbamoyl]piperidin-1-yl}-2,15,17-trihydroxy-11-methoxy-3,7,12,14,16,18,22,32-octamethyl-6,23,37-trioxo-8,27,38-trioxa-24,34-diazahexacyclo[23.11.1.1^4,7.0^5,36.0^26,35.0^28,33]octatriaconta-1(36)2,4,9,19,21,25,28,30,32,34-undecaen-13-yl acetate] | > 10 µM | 0.16 | 0.0044 µM | 110% | 109% |
| CO[C@H]1/C=C/O[C@@]2(C)Oc3c(C)c(O)c4c(=O)c(c5oc6cc(N7CCN(C(=O)c8cccc(-c9ccccn9)c8)CC7)cc(C)c6nc-5c4c3C2=O)NC(=O)/C(C)=C\C=C\[C@H](C)[C@H](O)[C@@H](C)[C@@H](O)[C@@H](C)[C@H](OC(C)=O)[C@@H]1C [Compound 29b, (7S,9E,11S,12R,13S,14R,15R,16R,17S,18S,19E,21Z)-2,15,17-Trihydroxy-11-methoxy-3,7,12,14,16,18,22,32-octamethyl-6,23,37-trioxo-30-(4-[3-(pyridin-2-yl)benzoyl]piperazin-1-yl)-8,27,38-trioxa-24,34-diazahexacyclo-[23.11.1.1^4,7.0^5,36.0^26,35.0^28,33]octatriaconta-1(36)2,4,9,19,21,25,28,30,32,34-undecaen-13-yl acetate] | > 10 µM | 0.32 | 0.0087 µM | 136% | 128% |
| CO[C@H]1/C=C/O[C@@]2(C)Oc3c(C)c(O)c4c(=O)c(c5oc6cc(N7CCN(C(=O)c8ccc9occc9c8)CC7)cc(C)c6nc-5c4c3C2=O)NC(=O)/C(C)=C\C=C\[C@H](C)[C@H](O)[C@@H](C)[C@@H](O)[C@@H](C)[C@H](OC(C)=O)[C@@H]1C [Compound 29c, (7S,9E,11S,12R,13S,14R,15R,16R,17S,18S,19E,21Z)-30-[4-(1-Benzofuran-5-carbonyl)piperazin-1-yl]-2,15,17-trihydroxy-11-methoxy-3,7,12,14,16,18,22,32-octamethyl-6,23,37-trioxo-8,27,38-trioxa-24,34-diazahexacyclo[23.11.1.1^4,7.0^5,36.0^26,35.0^28,33]octatriaconta-(36)2,4,9,19,21,25,28,30,32,34-undecaen-13-yl acetate] | > 10 µM | 0.18 | 0.0049 µM | 121% | 114% |
| CO[C@H]1/C=C/O[C@@]2(C)Oc3c(C)c(O)c4c(=O)c(c5oc6cc(N7CCC(C(=O)O)CC7)cc(C)c6nc-5c4c3C2=O)NC(=O)/C(C)=C\C=C\[C@H](C)[C@H](O)[C@@H](C)[C@@H](O)[C@@H](C)[C@H](OC(C)=O)[C@@H]1C [Compound 29f, 1-[(7S,9E,11S,12R,13S,14R,15R,16R,17S,18S,19E,21Z)-13-(acetyloxy)-2,15,17-trihydroxy-11-methoxy-3,7,12,14,16,18,22,32-octamethyl-6,23,37-trioxo-8,27,38-trioxa-24,34-diazahexacyclo-[23.11.1.1^4,7.0^5,36.0^26,35.0^28,33]octatriaconta-1,3,5(36)9,19,21,25,28,30,32,34-undecaen-30-yl]piperidine-4-carboxylic acid] | > 10 µM | 8.9 | 0.238 µM (≈ 0.22 µg/mL) | 126% | 131% |
| CO[C@H]1/C=C/O[C@@]2(C)Oc3c(C)c(O)c4c(=O)c(c5oc6cc(N7CCC(CC(=O)O)CC7)cc(C)c6nc-5c4c3C2=O)NC(=O)/C(C)=C\C=C\[C@H](C)[C@H](O)[C@@H](C)[C@@H](O)[C@@H](C)[C@H](OC(C)=O)[C@@H]1C [Compound 29g, 2-{4-[(7S,9E,11S,12R,13S,14R,15R,16R,17S,18S,19E,21Z)-13-(acetyloxy)-2,15,17-trihydroxy-11-methoxy-3,7,12,14,16,18,22,32-octamethyl-6,23,37-trioxo-8,27,38-trioxa-24,34-diazahexacyclo[23.11.1.1^4,7.0^5,36.0^26,35.0^28,33]octatriaconta-1,3,5(36)9,19,21,25,28,30,32,34-undecaen-30-yl]piperidin-4-yl}acetic acid] | > 10 µM | 1.9 | 0.051 µM (≈ 0.0479 µg/mL) | 100% | 101% |
| CO[C@H]1/C=C/O[C@@]2(C)Oc3c(C)c(O)c4c(=O)c(c5oc6cc(N7CCN(CC(=O)O)CC7)cc(C)c6nc-5c4c3C2=O)NC(=O)/C(C)=C\C=C\[C@H](C)[C@H](O)[C@@H](C)[C@@H](O)[C@@H](C)[C@H](OC(C)=O)[C@@H]1C [Compound 29h, 2-{4-[(7S,9E,11S,12R,13S,14R,15R,16R,17S,18S,19E,21Z)-13-(acetyloxy)-2,15,17-trihydroxy-11-methoxy-3,7,12,14,16,18,22,32-octamethyl-6,23,37-trioxo-8,27,38-trioxa-24,34-diazahexacyclo[23.11.1.1^4,7.0^5,36.0^26,35.0^28,33]octatriaconta-1,3,5(36)9,19,21,25,28,30,32,34-undecaen-30-yl]piperazin-1-yl}acetic acid] | > 10 µM | 0.69 | 0.018 µM (≈ 0.0169 µg/mL) | 109% | 98% |
| CO[C@H]1/C=C/O[C@@]2(C)Oc3c(C)c(O)c4c(=O)c(c5oc6cc(C)cc(N7CCN(CCn8ccnc8)CC7)c6nc-5c4c3C2=O)NC(=O)/C(C)=C\C=C\[C@H](C)[C@H](O)[C@@H](C)[C@@H](O)[C@@H](C)[C@H](OC(C)=O)[C@@H]1C [Compound 30e, (7S,9E,11S,12R,13S,14R,15R,16R,17S,18S,19E,21Z)-2,15,17-Trihydroxy-32-{4-[3-(1H-imidazol-1-yl)ethyl]piperazin-1-yl}-11-methoxy-3,7,12,14,16,18,22,30-octamethyl-6,23,37-trioxo-8,27,38-trioxa-24,34-diazahexacyclo[23.11.1.1^4,7.0^5,36.0^26,35.0^28,33]octatriaconta-1(36)2,4,9,19,21,25,28,30,32,34-undecaen-13-yl acetate] | > 10 µM | 3.11 | 0.084 µM | 130% | 119% |
| CO[C@H]1/C=C/O[C@@]2(C)Oc3c(C)c(O)c4c(=O)c(c5oc6cc(C)cc(N7CCN(C(=O)c8cccc(-n9ccnc9)c8)CC7)c6nc-5c4c3C2=O)NC(=O)/C(C)=C\C=C\[C@H](C)[C@H](O)[C@@H](C)[C@@H](O)[C@@H](C)[C@H](OC(C)=O)[C@@H]1C [Compound 30f, (7S,9E,11S,12R,13S,14R,15R,16R,17S,18S,19E,21Z)-2,15,17-Trihydroxy-32-{4-[3-(1H-imidazol-1-yl)benzoyl]piperazin-1-yl}-11-methoxy-3,7,12,14,16,18,22,30-octamethyl-6,23,37-trioxo-8,27,38-trioxa-24,34-diazahexacyclo[23.11.1.1^4,7.0^5,36.0^26,35.0^28,33]octatriaconta-1(36)2,4,9,19,21,25,28,30,32,34-undecaen-13-yl acetate] | > 10 µM | 1.63 | 0.044 µM | 98% | 64% |
